This is an account of results in paper PMC3170264 (Retrovirology, 2011).

The target of assay [1] is T1, HIV-2 N2 IN (Human immunodeficiency virus type 2 subtype B, UniProt Q89928, I1301V/I1428V/M1455R/N1185G/N1438H/R1202K/R1392Q/T1348A/T1383N/V1343I/V1460M).
T1 construct: His-tag (pET-15b) (N); made in house; host or cells: Escherichia coli BL21-CodonPlus (DE3)-RIPL
T1 sequence (Q89928 1169-1464 N1185G/R1202K/I1301V/V1343I/T1348A/T1383N/R1392Q/I1428V/N1438H/M1455R/V1460M limits assumed): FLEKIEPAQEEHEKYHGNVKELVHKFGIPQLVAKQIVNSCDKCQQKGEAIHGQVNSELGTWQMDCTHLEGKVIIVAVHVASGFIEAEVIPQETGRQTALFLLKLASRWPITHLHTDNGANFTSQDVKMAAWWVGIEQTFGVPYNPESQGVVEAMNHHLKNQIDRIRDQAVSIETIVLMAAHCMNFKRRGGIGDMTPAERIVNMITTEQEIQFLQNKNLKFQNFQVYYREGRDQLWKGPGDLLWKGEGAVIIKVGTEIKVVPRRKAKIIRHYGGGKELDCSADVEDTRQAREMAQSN
In words: strand transfer inhibition, IN from clinical isolate N2. The settings on record: IN from RAL-naive patient N2; 200 nM IN; 37°C; Mg2+. The format is biochemical. How it is done:
The ST reaction was performed using a ^32P-labeled oligonucleotide mimicking the preprocessed substrate. Drug concentrations are indicated above each lane. […] Activity is expressed as a % of control without drug. Experiments were repeated two times.
(§1) The HIV-2 ODN substrate sequences were: UA: 5'-[…]-3'; U5B: 5'-[…]-3'; U5B-2: 5'-[…] […]-3'.

For assay [2], the system named is HIV-2 IN E92A/T97A/N155H (T1). In words: strand transfer inhibition, IN from clinical isolate T1. As to conditions: clinical isolate T1, N155H with substitutions at positions 92 and 97, 200 nM IN. Type of assay: biochemical. How it is done: (§2) Activity is expressed as a % of control without drug. Experiments were performed two times.
as §1

Assay [3] deals with T2, HIV-2 IN G140S (Human immunodeficiency virus type 2 subtype B, UniProt Q89928, G1308S/I1218V/I1301V/I1372V/M1455R/N1185G/N1438H/R1202K/R1392Q/T1348V/T1383A/V1460M).
T2 construct: His-tag (pET-15b) (N); made in house; host or cells: Escherichia coli BL21-CodonPlus (DE3)-RIPL
T2 sequence (Q89928 with tags, fused parts or gaps N1185G/R1202K/I1218V/I1301V/G1308S/T1348V/I1372V/T1383A/R1392Q/N1438H/M1455R/V1460M): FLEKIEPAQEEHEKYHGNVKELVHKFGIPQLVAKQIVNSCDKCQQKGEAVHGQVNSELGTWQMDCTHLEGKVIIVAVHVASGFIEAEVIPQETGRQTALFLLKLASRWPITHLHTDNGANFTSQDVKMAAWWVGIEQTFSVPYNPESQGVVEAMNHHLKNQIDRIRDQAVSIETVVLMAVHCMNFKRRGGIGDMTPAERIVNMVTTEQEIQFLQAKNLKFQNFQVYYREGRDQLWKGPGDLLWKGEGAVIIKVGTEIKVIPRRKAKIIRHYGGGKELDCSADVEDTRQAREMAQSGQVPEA
In words: strand transfer inhibition, site-directed mutant in N1 background. The settings on record: 200 nM IN. The format is biochemical. How it is done: as §2
(§3) Primer 1: N1, N2, T1, T2, 5'-[…]-3'; N3, 5'-[…] […]-3'; T3-T7, 5'-[…]-3'. Primers 2: N1, 5'-[…]-3'; N2, 5'-[…] […]-3'; N3, 5'-[…] C-3'; T1, T2, 5'-[…]-3'; T3-T7, 5'-GGATC […] -3'.
as §1

Assay [4] has as its target T3, HIV-2 IN Y143C/N155H (Human immunodeficiency virus type 2 subtype B, UniProt Q89928, I1218V/I1301V/I1372V/M1455R/N1185G/N1323H/N1438H/R1202K/R1392Q/T1348V/T1383A/V1460M/Y1311C).
T3 construct: His-tag (pET-15b) (N); made in house; host or cells: Escherichia coli BL21-CodonPlus (DE3)-RIPL
T3 sequence (Q89928 with tags, fused parts or gaps N1185G/R1202K/I1218V/I1301V/Y1311C/N1323H/T1348V/I1372V/T1383A/R1392Q/N1438H/M1455R/V1460M): T2 sequence (Q89928 with tags, fused parts or gaps N1185G/R1202K/I1218V/I1301V/G1308S/T1348V/I1372V/T1383A/R1392Q/N1438H/M1455R/V1460M) with S140G, Y143C, N155H
The description is as above. Type of assay: biochemical. As to conditions: Y143C/N155H double mutant in N1 background; 200 nM IN. On the procedure:
as §2, §3, §1

The target of assay [5] is T4, HIV-2 IN E92Q/Y143C (Human immunodeficiency virus type 2 subtype B, UniProt Q89928, E1260Q/I1218V/I1301V/I1372V/M1455R/N1185G/N1438H/R1202K/R1392Q/T1348V/T1383A/V1460M/Y1311C).
T4 construct: His-tag (pET-15b) (N); made in house; host or cells: Escherichia coli BL21-CodonPlus (DE3)-RIPL
T4 sequence (Q89928 with tags, fused parts or gaps N1185G/R1202K/I1218V/E1260Q/I1301V/Y1311C/T1348V/I1372V/T1383A/R1392Q/N1438H/M1455R/V1460M): T2 sequence (Q89928 with tags, fused parts or gaps N1185G/R1202K/I1218V/I1301V/G1308S/T1348V/I1372V/T1383A/R1392Q/N1438H/M1455R/V1460M) with E92Q, S140G, Y143C
Described as above. As to conditions: E92Q/Y143C double mutant in N1 background; 200 nM IN. Type of assay: biochemical. How it is done: as §2, §3, §1

Assay [6] relates to wild-type HIV-2. As to conditions: phenotypic susceptibility similar to that of HIV-1; cited from earlier work.
For assay [7], the target named is T5, HIV-2 IN G140S/Q148R (T3) (Human immunodeficiency virus type 2 subtype A, UniProt P04584, A1212T/E1378D/G1311S/I1304V/I1351V/I1372T/M1463V/Q1319R/R1205K/R1395Q/S1188G/S1210T/T1231V/V1190I).
T5 construct: His-tag (pET-15b) (N); made in house; host or cells: Escherichia coli BL21-CodonPlus (DE3)-RIPL
T5 sequence (P04584 1172-1464 S1188G/V1190I/R1205K/S1210T/A1212T/T1231V/I1304V/G1311S/Q1319R/I1351V/I1372T/E1378D/R1395Q/M1463V): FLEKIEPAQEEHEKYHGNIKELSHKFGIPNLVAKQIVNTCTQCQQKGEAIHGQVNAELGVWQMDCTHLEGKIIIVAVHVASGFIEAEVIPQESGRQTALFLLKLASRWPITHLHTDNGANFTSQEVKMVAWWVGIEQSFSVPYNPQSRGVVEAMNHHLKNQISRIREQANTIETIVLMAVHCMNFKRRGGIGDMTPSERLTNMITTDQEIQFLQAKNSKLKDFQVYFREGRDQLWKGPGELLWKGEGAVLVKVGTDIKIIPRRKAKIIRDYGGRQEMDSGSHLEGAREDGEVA
In words: strand transfer inhibition, IN from clinical isolate T3. Type of assay: biochemical. As to conditions: clinical isolate T3, G140S/Q148R double mutant; IC50 not reached at concentrations up to 1 μM. How it is done: as §2, §1

Each structure is given as a SMILES string. Substitutions are numbered along the chain they refer to. Some results are limits rather than exact numbers.

By IC50 is commonly meant the point on the concentration scale where inhibition reaches its midpoint. Turning to `Cc1nnc(C(=O)NC(C)(C)c2nc(C(=O)NCc3ccc(F)cc3)c(O)c(=O)n2C)o1` [RAL, raltegravir], the IC50 in assay [1] is 30 nM; in assay [4] it was 290 nM; in assay [5] it was 370 nM; in assay [7] it was greater than 1000 nM. Besides, the “factor of increase of IC50 versus wild-type N1 IN” value in assay [2] is “about 50”. The “susceptibility to RAL, strand transfer” value in assay [3] was “as susceptible to RAL as the wild-type reference N1 enzyme”. In assay [6], the “activity against wild-type HIV-2” value is on record as “active”.
